Measurements: US20110207119A1, “METHODS FOR PREDICTING A CANCER PATIENT'S RESPONSE TO SUNITINIB” (priority 2010, published 2011)

System: primary breast carcinoma cultures
Assay: in vitro chemoresponse assay on primary breast carcinoma cultures (DAPI nuclei count, aAUC of dose response curve)
Format: cell-based
Conditions: 39 primary breast cancer cultures, single agent, 10 doses 0.108-55.3 μM, 72 hours
Procedure: After assay development, thirty-nine primary breast carcinoma cultures were treated with sunitinib at the doses shown in Table 1.
All specimens treated with the drug were confirmed to contain a majority of epithelial cells (>65%) via immunocytochemistry. A 10-dose range of drug concentrations was used to treat the cell line and breast specimens for 72 hours. After treatment, the cultures were fixed with ethanol, and stained with DAPI. Any cells remaining adherent after treatment were considered live, and the DAPI stained nuclei were counted. The resulting dose response curves were analyzed.
aAUC values were calculated, essentially as follows:
(Xi is the normalized cell count of dose i)

In the case of `CCN(CC)CCNC(=O)c1c(C)[nH]c(/C=C2\C(=O)Nc3ccc(F)cc32)c1C` [sunitinib, Sunitinib], the “share of breast specimens responsive to sunitinib (aAUC of ≦7.85)” value (3 of 39) is reported as 7.6%, the “share of breast specimens with intermediate response (aAUC of 7.85-9.22)” value (8 of 39) is reported as 20.5% and the “share of breast specimens non-responsive to the drug (aAUC of ≧9.22)” value (28 of 39) is reported as 71.7%.
